# Experimental data from patent US10729691B2, “Treatment of infectious diseases with glucose uptake inhibitors” (Kadmon Corporation LLC, priority 2015, dated 2020).
# Tested on: P. falciparum (3D7 strain)-infected erythrocyte cultures
# Experiment: LC-MS metabolomics analysis of ATP levels in infected erythrocyte cultures
# Format: cell-based, Plasmodium falciparum
# Settings: 2.5 uM compound
# Protocol: The ATP levels of the infected cells are substantially depleted within 15 minutes of compound exposure and remain so for the duration of the experiment.
# Cellular metabolite levels were determined in cultures that had been enriched for late stage (trophozoite/schizont)-infected erythrocytes by centrifuging a bulk culture suspension over a two-step Percoll gradient (65%/35% Percoll) at 1,500 RCF for 15 minutes and collecting the parasitized erythrocytes at the interface. 10 uL of packed cells were pelleted from the resulting cultures by centrifugation (500 RCF, 5 minutes), the culture medium removed by aspiration, and the cells extracted with 1.2 mL of 80% methanol/20% on dry ice. The first extraction was collected as the supernatant after centrifugation (1,000 RCF, 5 minutes) and the pellet extracted again with 0.3 mL of 80% methanol/20%. The two extracts were pooled, dried under nitrogen and resuspended in 200 uL of water prior to LC-MS analysis. […]
# (§1) The sample was analyzed on an Exactive mass spectrometer (Thermo Scientific) to determine the chromatographic peak areas the analytes and internal standards. Glucose and lactate were quantified by taking the ratio of the unlabeled peak area to the area of the isotope-labeled standard.
row,SMILES,time until ATP levels of the infected cells are substantially depleted
1,CC(C)NC(=O)COc1cccc(-c2nc(Nc3ccc4[nH]ncc4c3)c3sccc3n2)c1 [Example 3],≤ 15 min

# Tested on: P. falciparum-infected RBCs
# Experiment: Glycolysis IC50 / lactate excretion assay in P. falciparum-infected RBCs
# Format: cell-based
# Settings: Plasmodium falciparum
# Protocol: The cultures were harvested and DNA quantitated using the standard Sybr Green I fluorescence assay. […] The culture medium was harvested and extracellular lactic acid was quantified by LC-MS.
# P. falciparum (HB-3 strain) cultures were maintained in standard culture conditions. […] Parasites were grown in O+ donor blood, 2% hematocrit.
# Parasite cultures were seeded in 96-well plates (1% hematocrit, 1-2% starting parasitemia, 100 μL total volume) with varying concentrations of the test compounds in a final concentration of 0.1% DMSO. Plates were cultured for 48 hours before harvesting the culture medium for LC-MS analysis. At harvest, thin smears were taken and examined microscopically to observe any alterations in parasite morphology.
# Culture medium samples were diluted in 9 volumes of methanol containing U-^13C-glucose and 1-^13C-lactate (final concentration 0.25 mM each). The samples were clarified by centrifugation at 13,000 RCF for 10 minutes. […] Mobile phase A was acetonitrile, and mobile phase B was 20 mM ammonium acetate (pH 9.4).
# as §1
row,IC50,SMILES
1,101 to 250 nM,CC(C)NC(=O)COc1cccc(-c2nc(Nc3ccc4[nH]ncc4c3)c3sccc3n2)c1 [Example 3]
2,10 to 100 nM,"CCC(CC)NC(=O)COc1cccc(-c2nc3c(c(Nc4ccc(-c5cn[nH]c5)cc4)n2)CN(C(C)=O)CC3)c1 [Example 45, 2-(3-(4-((4-(1H-pyrazol-4-yl)phenyl)amino)-6-acetyl-5,6,7,8-tetrahydropyrido[4,3-d]pyrimidin-2-yl)phenoxy)-N-(pentan-3-yl)acetamide]"
3,10 to 100 nM,"CC(C)CNC(=O)COc1cccc(-c2nc3c(c(Nc4ccc(-c5cn[nH]c5)cc4)n2)COCC3)c1 [Example 46, 2-(3-(4-((4-(1H-pyrazol-4-yl)phenyl)amino)-7,8-dihydro-5H-pyrano[4,3-d]pyrimidin-2-yl)phenoxy)-N-isobutylacetamide]"
4,10 to 100 nM,"CC(C)(C)CNC(=O)COc1cccc(-c2nc3c(c(Nc4ccc(-c5cn[nH]c5)cc4)n2)COCC3)c1 [Example 47, 2-(3-(4-((4-(1H-pyrazol-4-yl)phenyl)amino)-7,8-dihydro-5H-pyrano[4,3-d]pyrimidin-2-yl)phenoxy)-N-neopentylacetamide]"
5,10 to 100 nM,"CC(=O)N1CCc2nc(-c3cccc(OCC(=O)NC(C)(C)C)c3)nc(Nc3ccc(-c4cn[nH]c4)cc3)c2C1 [Example 48, 2-(3-(4-((4-(1H-pyrazol-4-yl)phenyl)amino)-6-acetyl-5,6,7,8-tetrahydropyrido[4,3-d]pyrimidin-2-yl)phenoxy)-N-(tert-butyl)acetamide]"
6,101 to 250 nM,"O=C(COc1cccc(-c2nc3c(c(Nc4ccc(-c5cn[nH]c5)cc4)n2)COCC3)c1)NC1CCCC1 [Example 51, 2-(3-(4-((4-(1H-pyrazol-4-yl)phenyl)amino)-7,8-dihydro-5H-pyrano[4,3-d]pyrimidin-2-yl)phenoxy)-N-cyclopentylacetamide]"
7,101 to 250 nM,"O=C(COc1cccc(-c2nc3c(c(Nc4ccc(-c5cn[nH]c5)cc4)n2)COCC3)c1)NC1CCC1 [Example 52, 2-(3-(4-((4-(1H-pyrazol-4-yl)phenyl)amino)-7,8-dihydro-5H-pyrano[4,3-d]pyrimidin-2-yl)phenoxy)-N-cyclobutylacetamide]"
8,101 to 250 nM,"CC(C)NC(=O)COc1cccc(-c2nc(Nc3ccc(-c4cn[nH]c4)cc3)c3cnccc3n2)c1 [Example 53, 2-(3-(4-((4-(1H-pyrazol-4-yl)phenyl)amino)pyrido[4,3-d]pyrimidin-2-yl)phenoxy)-N-isopropylacetamide]"
9,501 to 1000 nM,"CC(=O)N1Cc2nc(-c3cccc(OCC(=O)NC(C)C)c3)nc(Nc3ccc(-c4cn[nH]c4)cc3)c2C1 [Example 54, 2-(3-(4-((4-(1H-pyrazol-4-yl)phenyl)amino)-6-acetyl-6,7-dihydro-5H-pyrrolo[3,4-d]pyrimidin-2-yl)phenoxy)-N-isopropylacetamide]"
10,10 to 100 nM,"CCC(CC)NC(=O)COc1cccc(-c2nc3c(c(Nc4ccc(-c5cn[nH]c5)cc4)n2)CN(C(C)=O)C3)c1 [Example 55, 2-(3-(4-((4-(1H-pyrazol-4-yl)phenyl)amino)-6-acetyl-6,7-dihydro-5H-pyrrolo[3,4-d]pyrimidin-2-yl)phenoxy)-N-(pentan-3-yl)acetamide]"
11,101 to 250 nM,"CC(=O)N1Cc2nc(-c3cccc(OCC(=O)NC(C)(C)C)c3)nc(Nc3ccc(-c4cn[nH]c4)cc3)c2C1 [Example 56, 2-(3-(4-((4-(1H-pyrazol-4-yl)phenyl)amino)-6-acetyl-6,7-dihydro-5H-pyrrolo[3,4-d]pyrimidin-2-yl)phenoxy)-N-(tert-butyl)acetamide]"
12,101 to 250 nM,"CC(=O)N1CCc2nc(-c3cccc(OCC(=O)NC4CCCC4)c3)nc(Nc3ccc(-c4cn[nH]c4)cc3)c2C1 [Example 57, 2-(3-(4-((4-(1H-pyrazol-4-yl)phenyl)amino)-6-acetyl-5,6,7,8-tetrahydropyrido[4,3-d]pyrimidin-2-yl)phenoxy)-N-cyclopentylacetamide]"
13,101 to 250 nM,"CC(C)(C)NC(=O)COc1cccc(-c2nc(Nc3ccc(-c4cn[nH]c4)cc3)c3cnccc3n2)c1 [Example 58, 2-(3-(4-((4-(1H-pyrazol-4-yl)phenyl)amino)pyrido[4,3-d]pyrimidin-2-yl)phenoxy)-N-(tert-butyl)acetamide]"
14,101 to 250 nM,"CC(=O)N1CCc2nc(-c3cccc(OCC(=O)NCC(C)C)c3)nc(Nc3ccc(-c4cn[nH]c4)cc3)c2C1 [Example 59, 2-(3-(4-((4-(1H-pyrazol-4-yl)phenyl)amino)-6-acetyl-5,6,7,8-tetrahydropyrido[4,3-d]pyrimidin-2-yl)phenoxy)-N-isobutylacetamide]"
